In patent US20260262643A1, “HERBICIDAL BENZOXAZINES” (FMC CORPORATION, priority 2022, published 2026):

Experiments:
ryegrass, Italian [1] = experiment: Test C postemergence; type: in vivo, Lolium multiflorum; conditions: 10 days
Summary of the method: (§1)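 Test material, in non-phytotoxic solvent with surfactant, was sprayed on the soil directly after seeding (preemergence) or on young plants of 2–10 cm with one to two leaves (postemergence). Greenhouse, 10 days; 0–100 visual control scale.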

green foxtail [2] = experiment: Test C postemergence; type: in vivo, Setaria viridis; conditions: 10 days
Summary of the method: as §1

galium = experiment: Test C postemergence; type: in vivo, Galium aparine; conditions: 10 days
Summary of the method: as §1

soybean [3] = experiment: Test C postemergence; type: in vivo, Glycine max; conditions: 10 days
Summary of the method: as §1

rice = experiment: Test D flooded paddy test; type: in vivo, Oryza sativa; conditions: 250 g ai/ha, applied to paddy water, visual rating after 13 to 14 days, scale 0 to 100 (0 no effect, 100 complete control)
Summary of the method: (§2)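 2-leaf plants; flood 3 cm above soil; compound dosed into paddy water; greenhouse 13–14 d; visual rating vs controls, 0–100 (100 = complete control); dash = not tested.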

blackgrass [4] = experiment: Test C preemergence; type: in vivo, Alopecurus myosuroides; conditions: 0 to 100 scale (0 no effect, 100 complete control); for Plant response rating, Blackgrass: Preemergence, 500 g ai/ha, visual rating after 10 days; for Blackgrass plant response rating: Test C, preemergence, 125 g ai/ha
Summary of the method: as §1

pigweed, palmer [5] = experiment: Test C postemergence; type: in vivo, Amaranthus palmeri; conditions: 10 days
Summary of the method: as §1

kochia [6] = experiment: Test C preemergence; type: in vivo, Bassia scoparia; conditions: 0 to 100 scale (0 no effect, 100 complete control); for Kochia plant response rating: preemergence
Summary of the method: as §1

ducksalad = experiment: Test D flooded paddy test; type: in vivo, Heteranthera limosa; conditions: 250 g ai/ha, applied to paddy water, visual rating after 13 to 14 days, scale 0 to 100 (0 no effect, 100 complete control)
Summary of the method: as §2

barnyardgrass [7] = experiment: Test D flooded paddy test; type: in vivo, Echinochloa crus-galli; conditions: 250 g ai/ha, applied to paddy water, visual rating after 13 to 14 days, scale 0 to 100 (0 no effect, 100 complete control)
Summary of the method: as §2

wheat [8] = experiment: Test C preemergence; type: in vivo, Triticum aestivum; conditions: 0 to 100 scale (0 no effect, 100 complete control); for Wheat plant response rating: preemergence
Summary of the method: as §1

corn [9] = experiment: Test C postemergence; type: in vivo, Zea mays; conditions: 10 days
Summary of the method: as §1

barnyardgrass [10] = experiment: Test C postemergence; type: in vivo, Echinochloa crusgalli; conditions: 10 days
Summary of the method: as §1

pigweed, palmer [11] = experiment: Test C preemergence; type: in vivo, Amaranthus palmeri; conditions: 0 to 100 scale (0 no effect, 100 complete control); for Pigweed, Palmer plant response rating: preemergence
Summary of the method: as §1

horseweed = experiment: Test C postemergence; type: in vivo, Erigeron canadensis; conditions: 10 days
Summary of the method: as §1

sedge, umbrella = experiment: Test D flooded paddy test; type: in vivo, Cyperus difformis; conditions: 250 g ai/ha, applied to paddy water, visual rating after 13 to 14 days, scale 0 to 100 (0 no effect, 100 complete control)
Summary of the method: as §2

blackgrass [12] = experiment: Test C postemergence; type: in vivo, Alopecurus myosuroides; conditions: 10 days
Summary of the method: as §1

kochia [13] = experiment: Test C postemergence; type: in vivo, Bassia scoparia; conditions: 10 days
Summary of the method: as §1

ryegrass, Italian [14] = experiment: Test C preemergence; type: in vivo, Lolium multiflorum; conditions: 0 to 100 scale (0 no effect, 100 complete control); for Ryegrass, Italian plant response rating: preemergence
Summary of the method: as §1

ragweed [15] = experiment: Test C postemergence; type: in vivo, Ambrosia artemisiifolia; conditions: 10 days
Summary of the method: as §1

soybean [16] = experiment: Test C preemergence; type: in vivo, Glycine max; conditions: 0 to 100 scale (0 no effect, 100 complete control); for Soybean plant response rating: preemergence
Summary of the method: as §1

corn [17] = experiment: Test C preemergence; type: in vivo, Zea mays; conditions: 0 to 100 scale (0 no effect, 100 complete control); for Corn plant response rating: preemergence
Summary of the method: as §1

barnyardgrass [18] = experiment: Test C preemergence; type: in vivo, Echinochloa crusgalli; conditions: 0 to 100 scale (0 no effect, 100 complete control); for Plant response rating, Barnyardgrass: Preemergence, 500 g ai/ha, visual rating after 10 days; for Barnyardgrass plant response rating: Test C, preemergence, 125 g ai/ha
Summary of the method: as §1

oat, wild [19] = experiment: Test C postemergence; type: in vivo, Avena fatua; conditions: 10 days
Summary of the method: as §1

oat, wild [20] = experiment: Test C preemergence; type: in vivo, Avena fatua; conditions: 0 to 100 scale (0 no effect, 100 complete control); for Oat, Wild plant response rating: preemergence
Summary of the method: as §1

ragweed [21] = experiment: Test C preemergence; type: in vivo, Ambrosia artemisiifolia; conditions: 0 to 100 scale (0 no effect, 100 complete control); for Ragweed plant response rating: preemergence
Summary of the method: as §1

green foxtail [22] = experiment: Test C preemergence; type: in vivo, Setaria viridis; conditions: 0 to 100 scale (0 no effect, 100 complete control); for Foxtail, Green plant response rating: preemergence
Summary of the method: as §1

wheat [23] = experiment: Test C postemergence; type: in vivo, Triticum aestivum; conditions: 10 days
Summary of the method: as §1

[24] = 125 g ai/ha, postemergence, 0 to 100 scale, 0 no effect, 100 complete control
[25] = Postemergence, 500 g ai/ha, visual 0 to 100 scale (0 no effect, 100 complete control)
[26] = Preemergence, 500 g ai/ha, visual rating after 10 days

## CC(C)c1ncn(-c2cc3c(c(C(=O)N4C[C@H](C)Oc5c(Cl)cccc54)c2)OCO3)n1 [Compound 258, [(2S)-8-chloro-2-methyl-2,3-dihydro-1,4-benzoxazin-4-yl]-[6-(3-isopropyl-1,2,4-triazol-1-yl)-1,3-benzodioxol-4-yl]methanone]
ryegrass, Italian [1]; [24]
  Plant response rating, Ryegrass, Italian: 50
ryegrass, Italian [1]; [25]
  Plant response rating, Ryegrass, Italian: 80
Green foxtail [2]; [24]
  Plant response rating, Foxtail, Green: 50
Green foxtail [2]; [25]
  Plant response rating, Foxtail, Green: 90
galium; [24]
  Plant response rating, Galium: 100
galium; [25]
  Plant response rating, Galium: 100
Soybean [3]; [24]
  Plant response rating, Soybean: 100
Soybean [3]; [25]
  Plant response rating, Soybean: 100
rice
  Plant response rating, Rice (Flood): 10
Blackgrass [4]
  Plant response rating, Blackgrass: 60
  Blackgrass plant response rating: 40
pigweed, palmer [5]; [24]
  Plant response rating, Pigweed, Palmer: 100
pigweed, palmer [5]; [25]
  Plant response rating, Pigweed, Palmer: 100
Kochia [6]; [26]
  Plant response rating, Kochia: 100
Kochia [6]; Test C, 125 g ai/ha
  Kochia plant response rating: 90
ducksalad
  Plant response rating, Ducksalad (Flood): 98
Barnyardgrass [7]
  Plant response rating, Barnyardgrass (Flood): 35
Wheat [8]; [26]
  Plant response rating, Wheat: 60
Wheat [8]; Test C, 125 g ai/ha
  Wheat plant response rating: 50
Corn [9]; Zea mays, post-emergence, 240 h, 125 g ai/ha, postemergence, 0 to 100 scale (0 no effect, 100 complete control)
  Corn plant response rating (crop injury, 0 = no effect, 100 = complete kill) at 125 g/ha: 70%
Corn [9]; Zea mays, post-emergence, 240 h, Postemergence, 500 g ai/ha, visual 0 to 100 scale (0 no effect, 100 complete control)
  Corn plant response rating (crop injury, 0 = no effect, 100 = complete kill) at 500 g/ha: 80%
Barnyardgrass [10]; [24]
  Plant response rating, Barnyardgrass: 40
Barnyardgrass [10]; [25]
  Plant response rating, Barnyardgrass: 90
pigweed, palmer [11]; [26]
  Plant response rating, Pigweed, Palmer: 100
pigweed, palmer [11]; Test C, 125 g ai/ha
  Pigweed, Palmer plant response rating: 100
horseweed; [24]
  Plant response rating, Horseweed: 70
horseweed; [25]
  Plant response rating, Horseweed: 90
sedge, umbrella
  Plant response rating, Sedge, Umbrella (Flood): 98
Blackgrass [12]; Alopecurus myosuroides, post-emergence, 240 h, 125 g ai/ha, postemergence, 0 to 100 scale (0 no effect, 100 complete control), read-out: Plant response rating, Blackgrass
  pest or weed control at 125 g/ha: 50%
Blackgrass [12]; Alopecurus myosuroides, post-emergence, 240 h, Postemergence, 500 g ai/ha, visual 0 to 100 scale (0 no effect, 100 complete control), read-out: Plant response rating, Blackgrass
  pest or weed control at 500 g/ha: 100%
Kochia [13]; [24]
  Plant response rating, Kochia: 70
Kochia [13]; [25]
  Plant response rating, Kochia: 100
ryegrass, Italian [14]; [26]
  Plant response rating, Ryegrass, Italian: 100
ryegrass, Italian [14]; Test C, 125 g ai/ha
  Ryegrass, Italian plant response rating: 90
Ragweed [15]; [24]
  Plant response rating, Ragweed: 70
Ragweed [15]; [25]
  Plant response rating, Ragweed: 90
Soybean [16]; [26]
  Plant response rating, Soybean: 100
Soybean [16]; Test C, 125 g ai/ha
  Soybean plant response rating: 50
Corn [17]; [26]
  Plant response rating, Corn: 20
Corn [17]; Test C, 125 g ai/ha
  Corn plant response rating: 10
Barnyardgrass [18]
  Plant response rating, Barnyardgrass: 100
  Barnyardgrass plant response rating: 80
oat, wild [19]; [24]
  Plant response rating, Oat, Wild: 30
oat, wild [19]; [25]
  Plant response rating, Oat, Wild: 90
oat, wild [20]; [26]
  Plant response rating, Oat, Wild: 90
oat, wild [20]; Test C, 125 g ai/ha
  Oat, Wild plant response rating: 40
Ragweed [21]; [26]
  Plant response rating, Ragweed: 50
Ragweed [21]; Test C, 125 g ai/ha
  Ragweed plant response rating: 40
Green foxtail [22]; [26]
  Plant response rating, Foxtail, Green: 100
Green foxtail [22]; Test C, 125 g ai/ha
  Foxtail, Green plant response rating: 100
Wheat [23]; [24]
  Plant response rating, Wheat: 20
Wheat [23]; [25]
  Plant response rating, Wheat: 50

## COc1ccc(-n2cnc(C(C)C)n2)cc1C(=O)N1C[C@H](C)Oc2c(F)cccc21 [Compound 269]
ryegrass, Italian [1]; [24]
  Plant response rating, Ryegrass, Italian: 100
Green foxtail [2]; [24]
  Plant response rating, Foxtail, Green: 90
Green foxtail [2]; [25]
  Plant response rating, Foxtail, Green: 90
galium; [24]
  Plant response rating, Galium: 90
galium; [25]
  Plant response rating, Galium: 100
Soybean [3]; [24]
  Plant response rating, Soybean: 100
rice
  Plant response rating, Rice (Flood): 10
Blackgrass [4]
  Plant response rating, Blackgrass: 90
  Blackgrass plant response rating: 90
pigweed, palmer [5]; [24]
  Plant response rating, Pigweed, Palmer: 90
Kochia [6]; 500 g ai/ha
  Kochia plant response rating: 100
Kochia [6]; Test C, 125 g ai/ha
  Kochia plant response rating: 90
ducksalad
  Plant response rating, Ducksalad (Flood): 100
Barnyardgrass [7]
  Plant response rating, Barnyardgrass (Flood): 45
Wheat [8]; 500 g ai/ha
  Wheat plant response rating: 100
Wheat [8]; Test C, 125 g ai/ha
  Wheat plant response rating: 100
Corn [9]; [24]
  Plant response rating, Corn: 80
Corn [9]; [25]
  Plant response rating, Corn: 100
Barnyardgrass [10]; [24]
  Plant response rating, Barnyardgrass: 80
Barnyardgrass [10]; [25]
  Plant response rating, Barnyardgrass: 100
pigweed, palmer [11]; 500 g ai/ha
  Pigweed, Palmer plant response rating: 100
pigweed, palmer [11]; Test C, 125 g ai/ha
  Pigweed, Palmer plant response rating: 100
horseweed; [24]
  Plant response rating, Horseweed: 20
horseweed; [25]
  Plant response rating, Horseweed: 90
sedge, umbrella
  Plant response rating, Sedge, Umbrella (Flood): 98
Blackgrass [12]; [24]
  Plant response rating, Blackgrass: 80
Blackgrass [12]; [25]
  Plant response rating, Blackgrass: 90
Kochia [13]; [24]
  Plant response rating, Kochia: 80
ryegrass, Italian [14]; 500 g ai/ha
  Ryegrass, Italian plant response rating: 100
ryegrass, Italian [14]; Test C, 125 g ai/ha
  Ryegrass, Italian plant response rating: 100
Ragweed [15]; [24]
  Plant response rating, Ragweed: 70
Soybean [16]; 500 g ai/ha
  Soybean plant response rating: 90
Soybean [16]; Test C, 125 g ai/ha
  Soybean plant response rating: 90
Corn [17]; 500 g ai/ha
  Corn plant response rating: 90
Corn [17]; Test C, 125 g ai/ha
  Corn plant response rating: 20
Barnyardgrass [18]
  Plant response rating, Barnyardgrass: 100
  Barnyardgrass plant response rating: 100
oat, wild [19]; [24]
  Plant response rating, Oat, Wild: 80
oat, wild [20]; 500 g ai/ha
  Oat, Wild plant response rating: 90
oat, wild [20]; Test C, 125 g ai/ha
  Oat, Wild plant response rating: 60
Ragweed [21]; 500 g ai/ha
  Ragweed plant response rating: 100
Ragweed [21]; Test C, 125 g ai/ha
  Ragweed plant response rating: 100
Green foxtail [22]; 500 g ai/ha
  Foxtail, Green plant response rating: 100
Green foxtail [22]; Test C, 125 g ai/ha
  Foxtail, Green plant response rating: 100
Wheat [23]; [24]
  Plant response rating, Wheat: 80
